The results in this text go back to paper PMC12299576 (Viruses, 2025).

Structures are written as SMILES. Like-named read-outs stand apart in the source and are kept apart here. A value given as a limit tells only on which side of the number the result lay.

Series [1] has as its system HTNV-76118 strain. Description: microbe, parasite or virus in culture. It is filed as cell-based, Hantaan virus (HTNV). As to conditions: Orthohantavirus hantanense, Vero C1008, 120 h.
A short description of series [2]: in vitro. As to conditions: African green monkey.
Series [3] relates to HTNV-76118 strain. Description: microbe, parasite or virus in culture. The following applies: Orthohantavirus hantanense, Vero C1008, read-out: EC50, Post entry. It is filed as cell-based, Hantaan virus (HTNV).
Series [4] has as its system HTNV-76118 strain. Description: microbe, parasite or virus in culture. It is filed as cell-based, Hantaan virus (HTNV). As to conditions: for EC50: Orthohantavirus hantanense, Vero C1008, read-out: EC50, Virucidal.
Series [5] deals with HTNV-76118 strain. Description: microbe, parasite or virus in culture. Format: cell-based, Hantaan virus (HTNV). The following applies: Orthohantavirus hantanense, Vero C1008, read-out: EC50, 2H pretreatment.
The subject of series [6] is HTNV. It is filed as cell-based, Hantaan virus (HTNV).

In series [1], `CC(C)CC(=O)c1c(O)cc2c(c1O)C(CC(C)C)C1=C(O2)C(C)(C)C(=O)C(C)(C)C1=O` (stereo not shown) [Rhodomyrtone, rhodomyrtone] gave an EC50 of 0.3 ± 0.03 µM. In series [2], this molecule displayed a CC50 of 5.11 ± 2.49 µM.
On to `NC(=O)c1ncn([C@@H]2O[C@H](CO)[C@@H](O)[C@H]2O)n1` [Ribavirin, ribavirin, reference compound], for which the 50% effective concentration (EC50) is 13.2 ± 0.4 µM in series [3], above 200 µM in series [4], 20.5 ± 1.63 µM in series [1] and above 200 µM in series [5]. For the same molecule, the “direct virucidal effect on HTNV” value in series [4] is recorded as “neither compound exhibited a direct virucidal effect”. In series [2], the CC50 was above 200 µM.
For `CC(C)CC(=O)c1c(O)c2c(c3c1OC1(O)C(C(=O)C(C)(C)C(=O)C1(C)C)C3C(C)C)OC1=C(C(=O)C(C)(C)C(=O)C1(C)C)C2CC(C)C` (stereo not shown) [Callistemontrimer A, callistemontrimer A], the EC50 is 0.65 ± 0.45 µM in series [3], above 50 µM in series [4], 4.41 ± 3.4 µM in series [1] and above 50 µM in series [5]. Moreover, the “direct virucidal effect on HTNV” value in series [4] was “neither compound exhibited a direct virucidal effect”. In series [6], the “suppression of viral replication (HTNV nucleoprotein immunofluorescence)” value is reported as “effectively suppressed viral replication”. Also, in series [2], the CC50 is 32.1 ± 6 µM.
On to `CC(C)CC(=O)c1c(O)c2c(c3c1OC1(O)C(C(=O)C(C)(C)C(=O)C1(C)C)C3CC(C)C)OC1=C(C(=O)C(C)(C)C(=O)C1(C)C)C2CC(C)C` (stereo not shown) [Callistemontrimer B, callistemontrimer B], for which the concentration giving a half-maximal response (EC50) in series [1] amounted to 2.79 ± 1.4 µM. In addition, the CC50 in series [2] came to 16.9 ± 1 µM.
In series [1], `CC(C)CC(=O)c1c(O)cc(O)c2c1OC1=C(C(=O)C(C)(C)C(=O)C1(C)C)C2CC(C)C` (stereo not shown) [Rhodomyrtosone B, rhodomyrtosone B] came in with an EC50 of 2.69 ± 0.32 µM. The CC50 in series [2] was 7.44 ± 1.15 µM.
